Results taken from patent US9200319B2, “Nucleotides and nucleosides and methods for their use in DNA sequencing” (Lasergen, Inc., priority 2008, dated 2015).
Several values for one entry are separate records, joined by “and”; a condition that tells them apart may be missing. Identical values can stand only once. Like-named read-outs stand apart in the source and are kept apart here.

Legend:
[1] = target: T1, THERMINATOR™ DNA polymerase (Thermococcus sp., UniProt Q56366, A485L/D141A/E143A); assay: termination assay, weighted sum analysis on homopolymer repeat template; format: biochemical, Thermococcus species 9° N-7; settings: 1.0 = complete termination after a single incorporation
T1 construct: purchased New England Biolabs
Protocol: A weighted sum of 1.0 represents complete termination after a single incorporation, while a value greater than 1.0 indicates incorporation beyond the +1 position (e.g. nucleotide read through). […] The assay is performed as described above for the polymerase end-point assay, except that the template used is a homopolymer repeat, thereby allowing for multiple incorporations of a given nucleotide compound.

[2] = target: T1, THERMINATOR™ DNA polymerase; assay: biochemical; set-up: species or system Thermococcus species 9° N-7
Protocol: (§1) Natural and modified nucleotides were tested for incorporation efficiency using the “polymerase end point assay” (Wu et al., 2007, which is incorporated herein by reference). This assay examines incorporation efficiency on matched and mismatched template bases. Incorporation efficiency is measured by determining the concentration at which the compound incorporates on half the primer-template complexes (IC50). Titrations of increasing compound concentration were performed to generate curves from which the IC50 can be determined.
(§2) The sequence of the template DNA is selected depending on which compound will be tested. For example, the first interrogation base after the primer in the template sequence is the complement base of the compound when measuring incorporation efficiency, and one of three mismatched bases when measuring mismatch discrimination properties.
(§3) To the annealed reaction, a DNA polymerase (e.g., THERMINATOR™ DNA polymerase, 0.25 units per reaction, New England Biolabs), 1× Thermopol Buffer, and a known concentration of either natural or modified nucleotide are added to each 10 μL reaction and incubated at 75° C. for 10 minutes, cooled on ice, and quenched with 10 μL of stop solution (98% formamide: 10 mM Na2EDTA, pH=8.0, 25 mg/ml Blue Dextran). Stopped reactions are heated to 75° C. for 30 seconds to denature the DNA, and then placed on ice. The extension products are analyzed on a 10% Long Ranger (Lonza) polyacrylamide gel using an ABI model 377 DNA sequencer. Additional details are provided in Example 1, below.
Polymerase Assays. Natural and modified nucleotides were tested for incorporation efficiency using the “polymerase end point assay” (Wu et al., 2007, which is incorporated herein by reference). This assay examines incorporation efficiency on matched and mismatched template bases. Incorporation efficiency is measured by determining the concentration at which the compound incorporates on half the primer-template complexes (IC50). Titrations of increasing compound concentration were performed to generate curves from which the IC50 can be determined.
The assay is performed by first annealing 5 nM of BODIPY-FL labeled primer with 40 nM template DNA in 1× Thermopol Buffer (20 mM Tris-HCl, pH 8.8; 10 mM (NH4)2SO4; 10 mM KCl; 2 mM MgSO4; 0.1% Triton X-100, New England BioLabs).
as §2, with “The temperature cycle to complete primer annealing is 80° C. for 30 seconds, 57° C. for 30 seconds, then cooling to 4° C. The” for “The”
as §3, with “sequencer.” for “sequencer. Additional details are provided in Example 1, below.”

[3] = target: T1, THERMINATOR™ DNA polymerase; assay: polymerase end point assay, mismatch discrimination (mismatched template bases); format: biochemical, Thermococcus species 9° N-7
Protocol: as §1, §2
The mismatch/match ratios represent the ability of the polymerase to distinguish between correctly incorporating against a matched template base and a mismatch one. Discrimination is considered sufficient when the mismatch/match ratio is greater than or equal to 100 (two orders of magnitude). […] Both natural dGTP and C^7-(2-nitrobenzyloxy)methyl-2′-dGTP (5p107) show mismatch/match ratios ranging from 10 to 360, and 10 to 250, respectively, two of which are below the 100-fold threshold. […] A similar trend is observed for the C^7-hydroxymethyl-dATP analogs. For the compounds shown in Table 1, substitution at the α-carbon of the 2-nitrobenzyl group increases mismatch discrimination in a stereo-specific manner.
as §2, with “The temperature cycle to complete primer annealing is 80° C. for 30 seconds, 57° C. for 30 seconds, then cooling to 4° C. The” for “The”
as §3, with “sequencer.” for “sequencer. Additional details are provided in Example 1, below.”

[4] = adjusted IC50 used to set the concentrations of the termination assay, read-out: Adj IC50 Conc
[5] = concentration at which the compound incorporates on half the primer-template complexes, complement template base, read-out: IC50 for incorporation
[6] = Adj IC50 Conc (nM), adjusted IC50 used to set the concentrations of the termination assay
[7] = IC50 for incorporation, concentration at which the compound incorporates on half the primer-template complexes, complement template base

T1 sequence (Q56366 whole entry D141A/E143A/A485L): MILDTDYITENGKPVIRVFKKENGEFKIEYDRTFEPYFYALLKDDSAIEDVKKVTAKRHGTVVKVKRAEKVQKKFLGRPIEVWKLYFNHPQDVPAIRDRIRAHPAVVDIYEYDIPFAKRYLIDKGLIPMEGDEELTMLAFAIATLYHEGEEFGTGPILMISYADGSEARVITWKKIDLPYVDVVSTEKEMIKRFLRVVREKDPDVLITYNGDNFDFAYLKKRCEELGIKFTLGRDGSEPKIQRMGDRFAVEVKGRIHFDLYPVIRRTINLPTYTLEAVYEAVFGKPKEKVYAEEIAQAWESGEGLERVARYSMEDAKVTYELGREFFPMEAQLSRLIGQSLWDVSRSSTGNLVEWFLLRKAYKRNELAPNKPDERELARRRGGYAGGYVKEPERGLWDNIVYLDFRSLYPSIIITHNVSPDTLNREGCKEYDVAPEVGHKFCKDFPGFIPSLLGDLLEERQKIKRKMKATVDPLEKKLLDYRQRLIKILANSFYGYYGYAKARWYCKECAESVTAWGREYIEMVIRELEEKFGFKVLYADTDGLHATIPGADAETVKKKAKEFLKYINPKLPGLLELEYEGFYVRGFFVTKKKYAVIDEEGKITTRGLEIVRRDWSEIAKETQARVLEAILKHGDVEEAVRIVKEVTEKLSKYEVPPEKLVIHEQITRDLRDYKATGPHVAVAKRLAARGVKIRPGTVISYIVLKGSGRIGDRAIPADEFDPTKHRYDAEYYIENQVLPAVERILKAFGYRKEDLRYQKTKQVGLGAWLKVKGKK

Row | SMILES | Average Weighted Sum ± SD ([1]; 1x IC50) | Average Weighted Sum ± SD ([1]; 5x IC50) | Average Weighted Sum ± SD ([1]; 25x IC50) | IC50 [2, 4] | IC50 [2, 5] | IC50 [2, 6] | IC50 [2, 7] | Mismatch/match ratio (10^2) ([3]; template base "A") | Mismatch/match ratio (10^2) ([3]; template base "G") | Mismatch/match ratio (10^2) ([3]; template base "T")
1 | CC(OCc1cn([C@H]2C[C@H](O)[C@@H](COP(=O)(O)OP(=O)(O)OP(=O)(O)O)O2)c(=O)[nH]c1=O)c1ccccc1[N+](=O)[O-] (mixture of isomers) [2p043, 5-(α-methyl-nitrobenzyl-oxymethyl)-2′-dUTP] | 0.53 ± 0.06 | 1.1 ± 0.0 | 1.7±0.1 | 1.7 nM | 1.7 ± 0.2 nM | – | – | – | – | –
2 | CC(C)C(OCc1cn([C@H]2C[C@H](O)[C@@H](COP(=O)(O)OP(=O)(O)OP(=O)(O)O)O2)c(=O)[nH]c1=O)c1ccccc1[N+](=O)[O-] (mixture of isomers) [2p148, 5-(α-isopropyl-2-nitrobenzyloxy)methyl-2′-dUTP] | 0.59 ± 0.02 | 0.99 ± 0.01 | 1.0 and 1.0 ± 0.01 | – | 2.3 ± 0.1 nM | 2.1 nM | – | – | – | –
3 | CC(C)C(OCc1cn([C@H]2C[C@H](O)[C@@H](COP(=O)(O)OP(=O)(O)OP(=O)(O)O)O2)c(=O)[nH]c1=O)c1ccccc1 (mixture of isomers) [5p111, 5-(α-isopropyl-benzyloxy)methyl-2′-dUTP] | 0.44 ± 0.02 | 0.96 ± 0.01 | 1.1 and 1.1 ± 0.03 | – | – | 0.8 nM | 0.8 nM | – | – | –
4 | CC(C)C(OCc1cn([C@H]2C[C@H](O)[C@@H](COP(=O)(O)OP(=O)(O)OP(=O)(O)O)O2)c2nc(N)[nH]c(=O)c12)c1ccccc1[N+](=O)[O-] (single isomer, unassigned) [5p143-ds1, 7-[1-(2-nitrophenyl)-2-methyl-propyloxy]methyl-7-deaza-2′-deoxyguanosine-5′-triphosphate] | – | – | – | – | – | – | 1.2 ± 0.2 nM | >830 10^2 | >21 10^2 | 5 10^2
5 | CC(C)C(OCc1cn([C@H]2C[C@H](O)[C@@H](COP(=O)(O)OP(=O)(O)OP(=O)(O)O)O2)c2nc(N)[nH]c(=O)c12)c1ccccc1[N+](=O)[O-] (single isomer, unassigned) [5p143-ds2, 7-[1-(2-nitrophenyl)-2-methyl-propyloxy]methyl-7-deaza-2′-deoxyguanosine-5′-triphosphate] | – | – | – | – | – | – | 1.3 ± 0.3 nM | >770 10^2 | >7.7 10^2 | 2.5 10^2
6 | Nc1nc2c(c(COCc3ccccc3[N+](=O)[O-])cn2[C@H]2C[C@H](O)[C@@H](COP(=O)(O)OP(=O)(O)OP(=O)(O)O)O2)c(=O)[nH]1 [5p107, 7-(2-nitrobenzyloxy)methyl-7-deaza-2′-deoxyguanosine-5′-triphosphate] | – | – | – | – | – | – | 1.5 ± 0.3 nM | 2.5 10^2 | 0.4 10^2 | 0.1 10^2
7 | O=c1[nH]c(=O)n([C@H]2C[C@H](O)[C@@H](COP(=O)(O)OP(=O)(O)OP(=O)(O)O)O2)cc1COCc1ccccc1 [5p145, 5-(benzyloxy)methyl-2′-deoxyuridine-5′-triphosphate] | 0.43 ± 0.1 | 1.3 ± 0.3 | 2.9 and 2.9 ± 0.4 | – | – | 1.4 nM | 1.4 nM | – | – | –
8 | Cc1ccccc1COCc1cn([C@H]2C[C@H](O)[C@@H](COP(=O)(O)OP(=O)(O)OP(=O)(O)O)O2)c(=O)[nH]c1=O [5p147, 5-(2-methylbenzyloxy)methyl-2′-deoxyuridine-5′-triphosphate] | 0.51 ± 0.1 | 1.5 ± 0.3 | 2.6 ± 0.4 | – | – | 1.4 nM | 1.4 nM | – | – | –
9 | CC(C)c1ccccc1COCc1cn([C@H]2C[C@H](O)[C@@H](COP(=O)(O)OP(=O)(O)OP(=O)(O)O)O2)c(=O)[nH]c1=O [5p149, 5-(2-isopropylbenzyloxy)methyl-2′-deoxyuridine-5′-triphosphate] | 0.53 ± 0.1 | 1.3 ± 0.1 | 2.2 ± 0.2 | – | – | 1.4 nM | 1.4 nM | – | – | –
10 | O=c1[nH]c(=O)n([C@H]2C[C@H](O)[C@@H](COP(=O)(O)OP(=O)(O)OP(=O)(O)O)O2)cc1COCc1ccccc1-c1ccccc1 [6p010, 5-(2-phenylbenzyloxy)methyl-2′-deoxyuridine-5′-triphosphate] | 0.46 ± 0.1 | 1.1 ± 0.1 | 1.7 and 1.7 ± 0.3 | – | – | 1.4 nM | 1.4 nM | – | – | –
11 | Cc1cccc(C)c1COCc1cn([C@H]2C[C@H](O)[C@@H](COP(=O)(O)OP(=O)(O)OP(=O)(O)O)O2)c(=O)[nH]c1=O [6p015, 5-(2,6-dimethylbenzyloxy)methyl-2′-deoxyuridine-5′-triphosphate] | 0.56 ± 0.1 | 1.5 ± 0.1 | 2.2 ± 0.1 | – | – | 1.4 nM | 1.4 nM | – | – | –
12 | CC(C)(C)c1ccccc1COCc1cn([C@H]2C[C@H](O)[C@@H](COP(=O)(O)OP(=O)(O)OP(=O)(O)O)O2)c(=O)[nH]c1=O [6p024, 5-(2-tert-butylbenzyloxy)methyl-2′-deoxyuridine-5′-triphosphate] | 0.44 ± 0.1 | 1.2 ± 0.1 | 1.9 ± 0.1 | – | – | 0.7 nM | 0.7 nM | – | – | –
13 | Nc1nc2c(ncn2[C@H]2C[C@H](O)[C@@H](COP(=O)(O)OP(=O)(O)OP(=O)(O)O)O2)c(=O)[nH]1 [dGTP, reference compound] | – | – | – | – | – | – | – | 3.6 10^2 | 0.2 10^2 | 0.1 10^2
14 | Cc1cn([C@H]2C[C@H](O)[C@@H](COP(=O)(O)OP(=O)(O)OP(=O)(O)O)O2)c(=O)[nH]c1=O [dTTP, reference compound] | 0.68 | 3.0 | 12.2 | 2.1 nM | – | – | – | – | – | –
